Experimental data taken from US8163805B2, “Small molecule antagonists of Bcl-2 family proteins” (The Regents of the University of Michigan, priority 2001, dated 2012).
Values joined by “and” are separate entries in the source; they are usually repeats but may differ in a detail not shown here. Equal values may be shown once.

What was measured:
MDA-MB-231 cells = assay: 5 day MTT cell growth assay, MDA-MB-231; type: cell-based, human; settings: breast cancer cell lines with high levels of Bcl-XL, FIG. 12
Method: For example, the ability of gossypol compounds to inhibit MDA-MB-231 cell growth was tested in a 5 day MTT assay.
Cells were seeded in 24 or 96-well-plates and gossypol compounds were prepared at 2-10 fold dilutions in suitable medium. Inhibition of cell viability was determined by treating the cells with the gossypol compounds for 24 hrs. […] Inhibition of cell growth was determined by treating cells with gossypol compounds for 3-6 days. […] In some embodiments, MTT assays are used to determine cell inhibition.
Absorbance at 540 nm is used to measure the amount of formazan product.

[1] = test system: MCF-7 breast cancer cell line; assay: Growth inhibition with TAXOL in fixed ratio, MCF-7; type: cell-based, human; settings: combinations in a fixed ratio to TAXOL
UM-SCC-1 = assay: 6-day MTT cell growth, UM-SCC-1; type: cell-based, human; settings: read-out: IC50, inhibition of cell growth
Method: (§1) UM-SCC and human fibroblast cell lines were continuously exposed to varying concentrations of (−)-gossypol in 6-day MTT cell survival assays. Control wells contained media (DMEM) with vehicle alone. For each data point n=5.
(§2) Ten squamous cell carcinoma cell lines established at the University of Michigan (UM-SCC) and three human fibroblast lines were grown in Dulbecco's modified Eagle's medium (DMEM) supplemented with 10% fetal bovine serum. UM-SCC cell lines originated from the larynx (n=2; UM-SCC-12, -23), oral cavity/oropharynx (n=5; UM-SCC-1, -6, -14A, -74B, -81B), hypopharynx (n=1; UM-SCC-22A) and metastases from laryngeal cancers (n=2; UM-SCC-17B, -25). Human fibroblast cell lines originated from surgical specimens (fibroblast cell lines 2 and 3) and neonatal foreskin samples (fibroblast cell line 1).
(§3) Logarithmically growing cell lines were cultured, washed, counted, and plated at 5,000-15,000 cells per well in duplicate wells of 96-well plates and incubated in DMEM overnight. […] The MTT assay measures cell survival based on mitochondrial conversion of MTT from a soluble tetrazolium salt into an insoluble colored formazan precipitate, which is dissolved in dimethyl sulfoxide and quantitated by spectrophotometry. […] Percent absorbance relative to control was plotted as a linear function of drug concentration.

UM-SCC-12 [2] = assay: 6-day MTT cell growth, UM-SCC-12; type: cell-based, human; settings: read-out: IC50, inhibition of cell growth
Method: as §1, §2, §3

UM-SCC-14A = assay: 6-day MTT cell growth, UM-SCC-14A; type: cell-based, human; settings: read-out: IC50, inhibition of cell growth
Method: as §1, §2, §3

UM-SCC-74B = assay: 6-day MTT cell growth, UM-SCC-74B; type: cell-based, human; settings: read-out: IC50, inhibition of cell growth
Method: as §1, §2, §3

UM-SCC-25 = assay: 6-day MTT cell growth, UM-SCC-25; type: cell-based, human; settings: read-out: IC50, inhibition of cell growth
Method: as §1, §2, §3

HNSCC cell lines = assay: 6-day MTT cell survival, mean over HNSCC cell lines; type: cell-based, human
UM-SCC-12 [3] = assay: Trypan blue exclusion cell death, UM-SCC-12; type: cell-based, human; settings: 10 μM, 48 hour
Method: Cells were seeded in 24 or 96-well-plates and gossypol compounds were prepared at 2-10 fold dilutions in suitable medium. […] Cell viability was then determined by the trypan-blue assays. Inhibition of cell growth was determined by treating cells with gossypol compounds for 3-6 days. Cell inhibition was determined using XTT. In some embodiments, MTT assays are used to determine cell inhibition.

UM-SCC-6 = assay: Flow cytometric TUNEL apoptosis assay, UM-SCC-6; type: cell-based, human; settings: 10 μM, 48-hour
Method: Briefly, FIGS. 24A-24C show apoptosis after (−)-gossypol as measured by a fluorescent flow cytometric TUNEL assay. Open peaks represent BrdU labeling of untreated cells. Shaded peaks indicate BrdU labeling of cell populations following 48-hour treatment with 10 μM (−)-gossypol; FIG. 24A, UM-SCC-cell lines with wild type p53; FIG. 24B, UM-SCC-cell lines with mutant p53; and FIG. 24C normal fibroblast cells.
Apoptosis of UM-SCC cell lines following (−)-gossypol treatment was quantitatively detected by enzymatic labeling of DNA strand breaks using terminal deoxynucleotidyltransferase (TdT) and Alexa Fluor-BrdUTP, known as the TdT-UTP nick end-labeling (TUNEL) assay by flow cytometry. Cells were exposed to (−)-gossypol for 48 hours, harvested, fixed and TUNEL stained according to the manufacturer's protocol (Molecular Probes Inc., Eugene, Oreg.). Ten thousand cells were analyzed per sample using excitation of Alexa Fluor at 488 nm. Apoptotic index (AI) was defined as percent of apoptotic cells in the treatment population minus that in the vehicle control population.

[4] = test system: LnCap prostate cancer cells; assay: MTT-based 5-day cell proliferation, LnCap; set-up: species or system human
Description: (§4) The present invention is not limited to any mechanism. Indeed, a mechanistic understanding of the invention is unnecessary to practice (make and use) the present compositions and methods.

[5] = test system: normal human fibroblast WI-38 cells; assay: MTT-based 5-day cell proliferation, WI-38; settings: WI-38, FIG. 42
Description: as §4

PARP protein = PARP protein cleavage; type: cell-based; settings: compared under identical doses
[6] = test system: PC-3 human prostate cancer bilateral xenografts; assay: PC-3 xenograft, (−)-gossypol alone and with cisplatin (Table 11); type: in vivo, NCr-nu nude mouse; settings: Table 11

Cc1cc2c(C(C)C)c(O)c(O)c(C=O)c2c(O)c1-c1c(C)cc2c(C(C)C)c(O)c(O)c(C=O)c2c1O [(−)-gossypol]
potency in inhibition of cell growth relative to (+)-gossypol, first statement (MDA-MB-231 cells): 2 times
potency in inhibition of cell growth relative to (+)-gossypol, second statement (MDA-MB-231 cells): 5-10 times
IC50 [1]: 8.71 µM
IC50 (UM-SCC-1): 2 µM and 1.5 µM
IC50 (UM-SCC-12 [2]): 4 µM
IC50 (UM-SCC-14A): 11 µM
IC50 (UM-SCC-74B): 4 µM
IC50 (UM-SCC-25): 8 µM
IC50 (HNSCC cell lines): 5.57 ± 2.57 µM
surviving (trypan blue excluding) fraction relative to untreated controls (UM-SCC-12 [3]): 14%
apoptotic index (AI) (UM-SCC-6): 80.3%
potency in inhibiting cancer cell growth relative to (+)-gossypol [4]: 5-10 times
potency in inhibiting cancer cell growth relative to racemic gossypol [4]: 2 times
cytotoxicity [5]: very limited effect
cleavage of PARP protein (PARP protein): more cleavage of PARP protein
tumor growth inhibition compared with vehicle control ([6]; (−)-gossypol 7.5 mg/kg p.o. in combination with cisplatin 5 mg/kg i.v.): cisplatin at 5 mg/kg achieved 65%
weight loss during the treatment ([6]; combination regimen of (−)-gossypol 7.5 mg/kg p.o. with cisplatin 5 mg/kg i.v.): CDDP alone, and 20-23% weight
